For the first assay, the target named is T1, human Orexin-2 receptor (Homo sapiens, UniProt O43614).
T1 construct: expressed in transfected cells; host or cells: HEK293 cells (transient transfection, Genejuice); membranes
T1 sequence (O43614 1-444): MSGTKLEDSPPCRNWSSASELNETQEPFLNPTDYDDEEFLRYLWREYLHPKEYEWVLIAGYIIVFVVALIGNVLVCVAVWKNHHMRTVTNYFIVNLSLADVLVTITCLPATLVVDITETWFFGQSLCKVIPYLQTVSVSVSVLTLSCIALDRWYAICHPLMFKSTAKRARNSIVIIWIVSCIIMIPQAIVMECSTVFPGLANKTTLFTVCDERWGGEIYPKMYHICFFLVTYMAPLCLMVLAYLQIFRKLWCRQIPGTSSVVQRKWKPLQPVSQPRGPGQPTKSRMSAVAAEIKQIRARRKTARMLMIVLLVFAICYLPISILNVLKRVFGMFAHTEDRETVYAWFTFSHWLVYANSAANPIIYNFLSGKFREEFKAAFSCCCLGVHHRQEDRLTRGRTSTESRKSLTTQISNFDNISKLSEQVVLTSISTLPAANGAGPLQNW
Nature of the assay: 3H-EMPA radioligand binding assay. Particulars: 3H-EMPA displacement, membranes of HEK293 cells transfected with human Orexin-2 receptor; KI by Cheng-Prussoff; read-out: OX2 pKi ave (converted). The method, boiled down:
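Membranes from HEK293 cells transiently transfected with human orexin-2 receptor cDNA, assayed with [3H]EMPA. Bound ligand collected on PEI-treated GF/B filters and counted by scintillation; IC50 from inhibition curves, Ki by Cheng-Prusoff.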
As for `COc1cc(N2C(=O)N(Cc3c(F)cccc3F)c3ccccc3S2(=O)=O)cc(OC)n1` [Example 167, 4-(2,6-Difluorobenzyl)-2-(2,6-dimethoxypyridin-4-yl)-2H-1,2,4-benzothiadiazin-3(4H)-one 1,1-dioxide], the Ki is 2.19 nM.
As for `COc1ccc(N2C(=O)N(Cc3c(F)cccc3Cl)c3ncccc3S2(=O)=O)nc1OC` [Example 168, 4-(2-Chloro-6-fluorobenzyl)-2-(5,6-dimethoxypyridin-2-yl)-2H-pyrido[2,3-e][1,2,4]thiadiazin-3(4H)-one 1,1-dioxide], the Ki was 1.23 nM.
With `COc1ccc(N2C(=O)N(Cc3c(F)cccc3F)c3ncccc3S2(=O)=O)nc1OC` [Example 169, 4-(2,-Difluorobenzyl)-2-(5,6-dimethoxypyridin-2-yl)-2H-pyrido[2,3-e][1,2,4]thiadiazin-3(4H)-one 1,1-dioxide], the Ki is 0.851 nM.
Consider `COc1cnc(N2C(=O)N(Cc3c(F)cc(F)cc3F)c3ccccc3S2(=O)=O)nc1OC` [Example 170, 2-(4,5-dimethoxypyrimidin-2-yl)-4-(2,4,6-trifluorobenzyl)-2H-1,2,4-benzothiadiazin-3(4H)-one 1,1-dioxide], for which the Ki is 7.24 nM.
Still for that read-out and setting: the value for `COc1cc(F)c(CN2C(=O)N(c3cnc(OC)c(C)c3)S(=O)(=O)c3ccccc32)c(F)c1` [Example 171, 4-(2,6-difluoro-4-methoxybenzyl)-2-(6-methoxy-5-methylpyridin-3-yl)-2H-1,2,4-benzothiadiazin-3(4H)-one 1,1-dioxide] was 1.78 nM.
`CNc1ccc(N2C(=O)N(Cc3c(F)cc(F)cc3F)c3ncccc3S2(=O)=O)nc1OC` [Example 172, 2-[6-methoxy-5-(methylamino)pyridin-2-yl]-4-(2,4,6-trifluorobenzyl)-2H-pyrido[2,3-e][1,2,4]thiadiazin-3(4H)-one 1,1-dioxide]: the Ki is 7.76 nM.
In the case of `COc1cc(F)c(CN2C(=O)N(c3ccc(C)c(C)n3)S(=O)(=O)c3cccnc32)c(F)c1` [Example 173, 4-(2,6-Difluoro-4-methoxybenzyl)-2-(5,6-dimethylpyridin-2-yl)-2H-pyrido[2,3-e][1,2,4]thiadiazin-3(4H)-one 1,1-dioxide], the Ki was 2.4 nM.
Turning to `COc1cc(F)c(CN2C(=O)N(c3cc(C)cc(C)n3)S(=O)(=O)c3cccnc32)c(F)c1` [Example 174, 4-(2,6-Difluoro-4-methoxybenzyl)-2-(4,6-dimethylpyridin-2-yl)-2H-pyrido[2,3-e][1,2,4]thiadiazin-3(4H)-one 1,1-dioxide], the Ki is 7.24 nM.
Still for that read-out and setting: the value for `COc1cc(F)c(CN2C(=O)N(c3ccc(C)c(OC)n3)S(=O)(=O)c3cccnc32)c(F)c1` [Example 175, 4-(2,6-Difluoro-4-methoxybenzyl)-2-(6-methoxy-5-methylpyridin-2-yl)-2H-pyrido[2,3-e][1,2,4]thiadiazin-3(4H)-one 1,1-dioxide] was 1.35 nM.
Still for that read-out and setting: with `COc1cc(N2C(=O)N(Cc3c(F)cc(F)cc3F)c3ncccc3S2(=O)=O)cnc1C` [Example 176, 2-(5-Methoxy-6-methylpyridin-3-yl)-4-(2,4,6-trifluorobenzyl)-2H-pyrido[2,3-e][1,2,4]thiadiazin-3(4H)-one 1,1-dioxide] the figure was 6.46 nM; with `CNc1ncc(N2C(=O)N(Cc3c(F)cc(OC)cc3F)c3ncccc3S2(=O)=O)cc1OC` [Example 177, 2-[5-Methoxy-6-(methylamino)pyridin-3-yl]-4-(2,6-difluoro-4-methoxybenzyl)-2H-pyrido[2,3-e][1,2,4]thiadiazin-3(4H)-one 1,1-dioxide], 2.19 nM; with `COc1cc(F)c(CN2C(=O)N(c3cnc(C)c(C)c3)S(=O)(=O)c3ccccc32)c(F)c1` [Example 178, 4-(2,6-difluoro-4-methoxybenzyl)-2-(5,6-dimethylpyridin-3-yl)-2H-1,2,4-benzothiadiazin-3(4H)-one 1,1-dioxide], 4.37 nM.
Still for that read-out and setting: the value for `CNc1nc(N2C(=O)N(Cc3c(F)cc(OC)cc3F)c3ccccc3S2(=O)=O)ccc1OC` [Example 179, 4-(2,6-difluoro-4-methoxybenzyl)-2-[5-methoxy-6-(methylamino)pyridin-2-yl]-2H-1,2,4-benzothiadiazin-3(4H)-one 1,1-dioxide] was 3.72 nM.
On to `COc1cc(N2C(=O)N(Cc3c(F)cc(F)cc3Cl)c3ncccc3S2(=O)=O)cc(OC)n1` [Example 180, 4-(2-Chloro-4,6-difluorobenzyl)-2-(2,6-dimethoxypyridin-4-yl)-2H-pyrido[2,3-e][1,2,4]thiadiazin-3(4H)-one 1,1-dioxide], for which the Ki was 2.04 nM.
Take `CNc1cc(N2C(=O)N(Cc3c(F)cc(OC)cc3F)c3ccccc3S2(=O)=O)cnc1OC` [Example 181, 4-(2,6-difluoro-4-methoxybenzyl)-2-[6-methoxy-5-(methylamino)pyridin-3-yl]-2H-1,2,4-benzothiadiazin-3(4H)-one 1,1-dioxide]: the Ki is 1.62 nM.
In the case of `COc1cc(F)c(CN2C(=O)N(c3ccc4ncsc4c3)S(=O)(=O)c3cccnc32)c(F)c1` [Example 182, 2-(1,3-Benzothiazol-6-yl)-4-(2,6-difluoro-4-methoxybenzyl)-2H-pyrido[2,3-e][1,2,4]thiadiazin-3(4H)-one 1,1-dioxide], the Ki is 4.47 nM.
For `COc1cc(OC)nc(N2C(=O)N(Cc3c(F)cc(OC)cc3F)c3ccccc3S2(=O)=O)c1` [Example 183, 4-(2,6-difluoro-4-methoxybenzyl)-2-(4,6-dimethoxypyridin-2-yl)-2H-1,2,4-benzothiadiazin-3(4H)-one 1,1-dioxide], the Ki is 2.75 nM.
As to `CNc1ncc(N2C(=O)N(Cc3c(F)cc(OC)cc3F)c3ncccc3S2(=O)=O)cc1C` [Example 184, 4-(2,6-Difluoro-4-methoxybenzyl)-2-[5-methyl-6-(methylamino)pyridin-3-yl]-2H-pyrido[2,3-e][1,2,4]thiadiazin-3(4H)-one 1,1-dioxide], the Ki is 8.51 nM.
As to `COc1cc(N2C(=O)N(Cc3c(F)cc(F)cc3Cl)c3ncccc3S2(=O)=O)cnc1OC` [Example 185, 4-(2-Chloro-4,6-difluorobenzyl)-2-(5,6-dimethoxypyridin-3-yl)-2H-pyrido[2,3-e][1,2,4]thiadiazin-3(4H)-one 1,1-dioxide], the Ki is 4.17 nM.
Turning to `CNc1cc(N2C(=O)N(Cc3c(F)cc(OC)cc3F)c3ncccc3S2(=O)=O)cnc1OC` [Example 186, 4-(2,6-Difluoro-4-methoxybenzyl)-2-[6-methoxy-5-(methylamino)pyridin-3-yl]-2H-pyrido[2,3-e][1,2,4]thiadiazin-3(4H)-one 1,1-dioxide], the Ki was 1.26 nM.

A further assay deals with rat CT18 sleep model. Nature of the assay: Rat telemetered sleep study (rat CT18 sleep model). The assay is classed as in vivo. Particulars: positive control, male CD rats, CT18. As for the experimental part: Rat Telemetered Sleep Study
Example 100 was assessed for activity in a rat CT18 sleep model. Adult male CD rats (250-300 g) were implanted with telemetric probes fixed to the skull to record cortical electroencephalogram (EEG), and with telemetric probes fixed to the skeletal muscles of the neck to record electromyogram (neck EMG), and allowed to recover for 3 weeks to re-establish normal sleep patterns. Rats were administered with example 100 (3, 10 and 30 mg/kg, po) or vehicle (80% v/v PEG400, 20% v/v Cremophor EL, 2 ml/kg) at Circadian Time (CT) 18, six hours after lights off. EEG and neck EMG traces were recorded for 5 hours after treatment and analysed to determine time spent awake and in NREM sleep and REM sleep.
As to `Cc1ccc(-c2nc3ccc(C)cn3c2CC(=O)N(C)C)cc1` [zolpidem, reference compound], the NREM latency result is reported as “decrease”, the NREM sleep entry is recorded as “increase” and the time spent awake entry is “decrease”.
